These results are taken from US20250221963A1 (GH RESEARCH IRELAND LIMITED, priority 2022, published 2025).

For data set [1], the system named is human plasma protein. The data set is described as follows: Plasma binding of 5-MIAA. The data set is classed as in vitro ADME. Here is the method:
Binding to human plasma protein was determined. Reported are the unbound fraction (fu) for three replicates as well as the mean unbound fraction, the standard deviation and the mean % recovery (Table 8).

Data set [2] deals with human hepatocytes. The data set is described as follows: Metabolic stability in Hμrel co-culture assay with human hepatocytes. The settings on record: for Disappearance with stromal cell controls: stromal cells.
For data set [3], the system named is human hepatocytes. The data set is described as follows: In vitro metabolism identification study in human hepatocytes. The settings on record: for Relative Proportion of compounds identified: 5-MeO-DMT free base incubated up to 120 minutes at 10 μM; for Presence in subsequent assays: metabolites of 5-MeO-DMT. As for the experimental part:
For incubations with cryopreserved hepatocytes, the 2 mM stock solution was diluted with Leibovitz L-15 medium to a concentration of 20 μM or 2 μM. An aliquot (250 μL) of the 20 μM and 2 μM test substance formulations was added to each hepatocyte incubation sample (250 μL), as appropriate, so that the final test substance concentration in the incubations was 10 μM or 1 μM, respectively, and incubations contained less than 1% (v/v) solvent.
Incubations were performed at ca. 37° C. in a shaking water bath (total incubation volume 0.5 mL). For 1 μM, incubations were terminated after 0, 5, 10, 20, 30, 60 and 120 minutes, by the addition of ice-cold acetonitrile (0.5 mL).
The samples were vortex mixed and centrifuged at ca 13,000 rpm for 10 minutes at room temperature. Following centrifugation, the protein-free supernatants were removed for analysis.
Blank control incubations were carried out with Leibovitz L-15 medium in place of the test substance. No cells control samples were performed with Leibovitz L-15 medium in place of hepatocytes. Aliquots of the blank control samples were taken at 120 minutes, while no cells control samples were taken at 0, 30 and 120 for 1 μM incubations and at 0 and 120 minutes for 10 μM incubations.
All 1 μM incubations were performed in duplicate, while all 10 μM incubations were performed in singlet. All samples were stored at −80° C. (nominal) prior to analysis.
Prior to sample analysis a 100 μL aliquot of each sample was evaporated to near dryness under a steady stream of nitrogen at room temperature, and subsequently reconstituted in 50 μL of mobile phase A (0.1% formic acid in water). Each sample (0, 30 and 120-minute, 10 μM) was analysed using accurate mass LC-MS to determine relative levels of parent compound at each time-point, and determine the profile of metabolites formed. Appropriate blank and control samples were also analysed. The 10 and 60-minute, 10 μM incubation samples were not analysed and were stored at −80° C. (nominal).
Data were interrogated for the presence of metabolites by comparison of retention times with the test substance reference standard and based on the accurate masses of potential metabolites using screening software (UNIFI version 1.9.4), and user defined search parameters. To confirm a suspected metabolite, the measured accurate mass of the peak detected in the sample used for structural elucidation had to be within 5 ppm of the theoretical mass in order to confirm the molecular formula.

Data set [4] in a line: Pharmacokinetics of 5-MeO-DMT and bufotenine after inhalation. The format is in vivo, human. Here is the method:
Blood samples were obtained at 1; 2; 4; 7; 10; 15; 20; 30; 45 min and 1; 1.5; 2; 3; 4 hours after administration.
PK parameters were generated by algebraic analysis of the concentration versus time plots for each individual. The analysis was carried out using the software Phoenix WinNonlin 6.3.

As to `COc1ccc2[nH]cc(CC(=O)O)c2c1` [5-MIAA, 5-methoxyindole-3-acetic acid], the “Plasma binding (mean fraction unbound)” value in data set [1] is listed as approximately 50%. The “Unbound fraction (fu)” value is recorded as 0.499 in data set [1] (Replicate 1), 0.462 in data set [1] (Replicate 2) and 0.544 in data set [1] (Replicate 3). Besides, the “Time until all traces are removed from circulation for urinary excretion” value in data set [1] (assuming glomerular filtration rate of 90-120 ml/min) was 1 to 2 h. This molecule came in with a Mean fu in data set [1] (three replicates) of 0.502. Moreover, the Half-life in data set [2] (human hepatocytes, 1 μM) is 15 400 min. The “In vitro intrinsic clearance” value in data set [2] (human hepatocytes, 1 μM) was 0.15 μl/min/million cells. Besides, the “Disappearance with stromal cell controls” value in data set [2] is on record as “no disappearance”. Besides, in data set [3], the “Relative Proportion of compounds identified” value (“Relative Proportion” below) was found to be 61%. Besides, in data set [3], the “Presence in subsequent assays” value was “predominant metabolite”.
For the molecule `COc1ccc2[nH]cc(CC[N+](C)(C)[O-])c2c1` [5-MeO-DMT-N-oxide], the “Relative Proportion” value in data set [3] was determined as 1%.
As to `COc1ccc2[nH]cc(CCO)c2c1` [5-methoxytryptophol, 5-Methoxyindole-3-ethanol], the “Time to complete disappearance” value in data set [2] (in the presence of hepatocytes) was determined as 24 h. Moreover, the “Disappearance with stromal cell controls” value in data set [2] is reported as “no disappearance”. For the same molecule, in data set [3], the “Relative Proportion” value is 25% and the “Presence in subsequent assays” value is on record as “repeatedly failed to detect the presence”.
For the molecule `CC(=O)CC(c1ccccc1)c1c(O)c2ccccc2oc1=O` (stereo not shown) [Warfarin, reference compound], the “Unbound fraction (fu)” value is listed as 0.0418 in data set [1] (Replicate 1), 0.0356 in data set [1] (Replicate 2) and 0.0358 in data set [1] (Replicate 3).
Regarding `CN(C)CCc1c[nH]c2ccc(O)cc12` [bufotenine], the “Relative Proportion” value in data set [3] was determined as 5%. Moreover, in data set [4] (after administration of 5-MeO-DMT), the “Detection in human serum” value is reported as “barely detected”. Moreover, the Bufotenine blood concentration in data set [4] (from 15 min onwards after 5-MeO-DMT, LLOQ) was less than 25 pg/mL.
